The subject of one test is freely-feeding rats. The note with it: central administration, 4 hour time period; cited from earlier work.
A further test relates to rats. Kind of test: Rat sleep/EEG studies. The note with it: central administration at the onset of the normal sleep period. The class given is in vivo. The text has this: Therefore antagonists of its receptor may be useful in the treatment of sleep disorders including insomnia.

“orexin-A: peptide ligand (agonist) of the orexin-1 receptor; amino acid sequence given in the 1st table (QPLPDCCRQKTCSCRLYELLHGAGNHAAGILTL; Orexin-A; UniProt O43612 34-66, looked up)”: in the test on freely-feeding rats, the “increase in food intake over control rats receiving vehicle” value is reported as “approximately four-fold”. In addition, in the test on rats, the arousal result is “dose-related increase in arousal”; the “paradoxical sleep and slow wave sleep 2” value is “reduction in paradoxical sleep and slow wave sleep 2”.

The values are drawn from patent US6506774B1, “Use of orexin receptor antagonists” (SmithKline Beecham p.l.c., priority 1999, dated 2003).
